From PubChem BioAssay AID1963871 (Molecular Pharmacology Branch, DTP, NCI, 2024)

Test system: KRAS-mutant PDC multicell tumor spheroid viability
Experiment: Anticancer human tumor 521955-158-R2-J5-PDC patient-derived pancreatic carcinoma cell line growth inhibition [KRAS2]
Conditions: for IC50: curve of first compound; for viability, T/C: stronger effect = lower value
Source text: Multicellular complex tumor spheroid response to RAS pathway inhibitors in combination with a targeted agents in patient-derived cell lines with oncogenic KRAS variants from multiple cancer types
A high-throughput screen of multi-cell type tumor spheroids was designed to identify active combinations of targeted small molecules and KRAS pathway inhibitors. Complex spheroids include a stromal component modeled by human endothelial cells (HUVEC) and fibroblasts modeled by human mesenchymal stem cells (MSCs). The concentration ranges selected for each drug and investigational agent were based upon clinically achievable concentrations if the clinical Cmax of the agent was known.
Compounds. The drugs and investigational agents: BI-3406 (NSC825286), BAY-293 (NSC824723), batoprotafib (TNO155; NSC825523), sotorasib (AMG 510; NSC818433), MRTX1257 (NSC819558), elimusertib (BAY 1895344; NSC800525), molibresib (GSK525762; NSC774829), temuterkib (LY3214996; NSC803410), venetoclax (NSC766270), alisertib (NSC759677), olaparib (NSC753686), talazoparib (NSC767125), erdafitinib (NSC781556), ipatasertib (NSC767898), cabozantinib (NSC761068), nintedanib (NSC756659), abemaciclib (NSC768073), docetaxel (NSC628503), trametinib (NSC758246), and sapanisertib (NSC764658) were obtained from the National Cancer Institute (NCI) Developmental Therapeutics Program Chemical Repository. The FDA-approved anticancer drug set is available from the Developmental Therapeutics Program. […] The stock solutions were prepared in dimethyl sulfoxide (DMSO, Sigma-Aldrich, St. Louis, MO, cat. D2650) at 800-fold the tested concentration and stored at -70 degrees C prior to their use. All drugs and investigational agents were tested over a range starting from a high concentration at or near the clinical Cmax and decreasing in half-log increments. If the clinical Cmax for an agent had not been determined, the highest concentration tested was 10 microM.
Cell Culture. All cells were maintained in an incubator at 37 degrees C and 5% CO2 with 95% humidity. The PDC lines were cultured according to standard operating procedures established by the NCI PDMR (https://pdmr.cancer.gov/sops/default.htm). Briefly, all PDCs were thawed and cultured in Matrigel-coated flasks prepared with a working solution of 1X Ham's F-12 nutrient mix, without supplementation (Invitrogen, Waltham, MA, cat. 11765054), 100 U/mL penicillin-streptomycin (Invitrogen, cat. 15140122), and 2.5% Matrigel (Corning Inc., Corning, NY, cat. 354248) for the first three passages. All PDCs were cultured in complete DMEM/F-12 media containing advanced DMEM/F-12 (Invitrogen, cat. 12634028), 4.9% defined fetal bovine serum, heat inactivated (HyClone Laboratories Inc., Logan, UT, cat. SH30070.03HI), 389 ng/mL hydrocortisone (Sigma-Aldrich, cat. H4001), 9.7 ng/mL human EGF recombinant protein (Invitrogen, cat. PHG0313), 23.4 microg/mL adenine (Sigma-Aldrich, cat. A2786), 97.3 U/mL penicillin-streptomycin (Invitrogen, cat. 15140122), 1.9 mM L-glutamine (Invitrogen, cat. 25030081), and 9.7 microM Y-27632 dihydrochloride (Tocris Bioscience, Bristol, United Kingdom, cat. 1254). The PDCs were cultured in complete DMEM/F12 media without 9.7 microM Y-27632 dihydrochloride for at least two passages prior to the screen. The established cell line HOP-62 was cultured in RPMI 1640 medium, HEPES (Invitrogen, cat. 22400105) with 10% defined fetal bovine serum (HyClone Laboratories Inc., cat. SH30070.03) and 2 mM L-glutamine (Invitrogen, cat. 25030081). The pooled donor HUVEC were cultured in endothelial cell growth medium 2 (PromoCell, Heidelberg, Germany, cat. C-22011) and the hMSC were cultured in mesenchymal stem cell growth medium 2 (PromoCell, cat. C-28009). For all experiments, HUVEC and hMSC were used at passages </=5, while the malignant cell lines were used at passages </=15. […]

[1] = second compound 0.1 µM, first compound 0.0316 µM
[2] = second compound 0.1 µM, first compound 0.1 µM
[3] = second compound 0.1 µM, first compound 0.316 µM
[4] = second compound 0.1 µM, first compound 1 µM
[5] = second compound 0.1 µM, first compound 3.16 µM
[6] = second compound 0.1 µM, first compound 10 µM
[7] = second compound 0.316 µM, first compound 0.0316 µM
[8] = second compound 0.316 µM, first compound 0.1 µM
[9] = second compound 0.316 µM, first compound 0.316 µM
[10] = second compound 0.316 µM, first compound 1 µM
[11] = second compound 0.316 µM, first compound 3.16 µM
[12] = second compound 0.316 µM, first compound 10 µM
[13] = second compound 1 µM, first compound 0.0316 µM
[14] = second compound 1 µM, first compound 0.1 µM
[15] = second compound 1 µM, first compound 0.316 µM
[16] = second compound 1 µM, first compound 1 µM
[17] = second compound 1 µM, first compound 3.16 µM
[18] = second compound 1 µM, first compound 10 µM
[19] = second compound 3.16 µM, first compound 0.0316 µM
[20] = second compound 3.16 µM, first compound 0.1 µM
[21] = second compound 3.16 µM, first compound 0.316 µM
[22] = second compound 3.16 µM, first compound 1 µM
[23] = second compound 3.16 µM, first compound 10 µM
[24] = second compound 10 µM, first compound 0.0316 µM
[25] = second compound 10 µM, first compound 0.1 µM
[26] = second compound 10 µM, first compound 0.316 µM
[27] = second compound 10 µM, first compound 1 µM
[28] = second compound 10 µM, first compound 3.16 µM
[29] = second compound 10 µM, first compound 10 µM
[30] = second compound 0.1 µM, first compound 0.000316 µM
[31] = second compound 0.1 µM, first compound 0.001 µM
[32] = second compound 0.1 µM, first compound 0.00316 µM
[33] = second compound 0.1 µM, first compound 0.01 µM
[34] = second compound 0.316 µM, first compound 0.000316 µM
[35] = second compound 0.316 µM, first compound 0.001 µM
[36] = second compound 0.316 µM, first compound 0.00316 µM
[37] = second compound 0.316 µM, first compound 0.01 µM
[38] = second compound 1 µM, first compound 0.000316 µM
[39] = second compound 1 µM, first compound 0.001 µM
[40] = second compound 1 µM, first compound 0.00316 µM
[41] = second compound 1 µM, first compound 0.01 µM
[42] = second compound 3.16 µM, first compound 0.000316 µM
[43] = second compound 3.16 µM, first compound 0.001 µM
[44] = second compound 3.16 µM, first compound 0.00316 µM
[45] = second compound 3.16 µM, first compound 0.01 µM
[46] = second compound 10 µM, first compound 0.000316 µM
[47] = second compound 10 µM, first compound 0.001 µM
[48] = second compound 10 µM, first compound 0.00316 µM
[49] = second compound 10 µM, first compound 0.01 µM
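Further: viability read after seven days of drug exposure.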

Compound: CC(C)NCC(C(=O)N1CCN(c2ncnc3c2C(C)CC3O)CC1)c1ccc(Cl)cc1 (stereo not drawn) + C=CC(=O)N1CCN(c2nc(=O)n(-c3c(C)ccnc3C(C)C)c3nc(-c4c(O)cccc4F)c(F)cc23)C(C)C1
- IC50 (second compound 0.1 µM): > 10000 nM
- IC50 (second compound 0.316 µM): > 10000 nM
- IC50 (second compound 1 µM): > 10000 nM
- IC50 (second compound 3.16 µM): 293 nM
- IC50 (second compound 10 µM): 134 nM
- viability, T/C [1]: 102%
- viability, T/C [2]: 105%
- viability, T/C [3]: 77.7%
- viability, T/C [4]: 78%
- viability, T/C [5]: 76.5%
- viability, T/C [6]: 67%
- viability, T/C [7]: 116%
- viability, T/C [8]: 100%
- viability, T/C [9]: 74.4%
- viability, T/C [10]: 64.4%
- viability, T/C [11]: 65.3%
- viability, T/C [12]: 58.6%
- viability, T/C [13]: 106%
- viability, T/C [14]: 94.9%
- viability, T/C [15]: 64.1%
- viability, T/C [16]: 54.5%
- viability, T/C [17]: 58.2%
- viability, T/C [18]: 53.2%
- viability, T/C [19]: 94.8%
- viability, T/C [20]: 82.8%
- viability, T/C [21]: 46.5%
- viability, T/C [22]: 43.2%
- viability, T/C [23]: 31%
- viability, T/C [24]: 69.5%
- viability, T/C [25]: 56.2%
- viability, T/C [26]: 32.1%
- viability, T/C [27]: 19.7%
- viability, T/C [28]: 19.2%
- viability, T/C [29]: 13.2%

Compound: CC(C)n1nc(-c2ccc3oc(N)nc3c2)c2c(N)ncnc21 + C=CC(=O)N1CCN(c2nc(=O)n(-c3c(C)ccnc3C(C)C)c3nc(-c4c(O)cccc4F)c(F)cc23)C(C)C1
- IC50 (second compound 0.1 µM): 9.61 nM
- IC50 (second compound 0.316 µM): 7.5 nM
- IC50 (second compound 1 µM): 7.19 nM
- IC50 (second compound 3.16 µM): 3.43 nM
- IC50 (second compound 10 µM): 0.703 nM
- viability, T/C [30]: 110%
- viability, T/C [31]: 97.8%
- viability, T/C [32]: 63.6%
- viability, T/C [33]: 52.8%
- viability, T/C [1]: 36.7%
- viability, T/C [2]: 27.2%
- viability, T/C [34]: 117%
- viability, T/C [35]: 98.1%
- viability, T/C [36]: 65.5%
- viability, T/C [37]: 44.6%
- viability, T/C [7]: 35.5%
- viability, T/C [8]: 26.9%
- viability, T/C [38]: 117%
- viability, T/C [39]: 102%
- viability, T/C [40]: 64.3%
- viability, T/C [41]: 43.8%
- viability, T/C [13]: 36.6%
- viability, T/C [14]: 24%
- viability, T/C [42]: 91.7%
- viability, T/C [43]: 79.7%
- viability, T/C [44]: 51.9%
- viability, T/C [45]: 29.7%
- viability, T/C [19]: 26.9%
- viability, T/C [20]: 23.1%
- viability, T/C [46]: 58.1%
- viability, T/C [47]: 46.9%
- viability, T/C [48]: 32.5%
- viability, T/C [49]: 25.7%
- viability, T/C [25]: 18.8%

Compound: CC1(C)CCC(CN2CCN(c3ccc(C(=O)NS(=O)(=O)c4ccc(NCC5CCOCC5)c([N+](=O)[O-])c4)c(Oc4cnc5[nH]ccc5c4)c3)CC2)=C(c2ccc(Cl)cc2)C1 + C=CC(=O)N1CCN(c2nc(=O)n(-c3c(C)ccnc3C(C)C)c3nc(-c4c(O)cccc4F)c(F)cc23)C(C)C1
- IC50 (second compound 0.1 µM): 5910 nM
- IC50 (second compound 0.316 µM): 5020 nM
- IC50 (second compound 1 µM): 3690 nM
- IC50 (second compound 3.16 µM): 3460 nM
- IC50 (second compound 10 µM): 1940 nM
- viability, T/C [1]: 100%
- viability, T/C [2]: 116%
- viability, T/C [3]: 106%
- viability, T/C [4]: 109%
- viability, T/C [5]: 92.3%
- viability, T/C [6]: 14.3%
- viability, T/C [7]: 96%
- viability, T/C [8]: 110%
- viability, T/C [9]: 106%
- viability, T/C [10]: 112%
- viability, T/C [11]: 76.1%
- viability, T/C [12]: 11.1%
- viability, T/C [13]: 114%
- viability, T/C [14]: 104%
- viability, T/C [15]: 113%
- viability, T/C [16]: 111%
- viability, T/C [17]: 56%
- viability, T/C [18]: 10.2%
- viability, T/C [19]: 90.9%
- viability, T/C [20]: 102%
- viability, T/C [21]: 92.4%
- viability, T/C [22]: 86.9%
- viability, T/C (second compound 3.16 µM, first compound 3.16 µM): 52.3%
- viability, T/C [23]: 22.5%
- viability, T/C [24]: 75.9%
- viability, T/C [25]: 68.8%
- viability, T/C [26]: 72.9%
- viability, T/C [27]: 61.9%
- viability, T/C [28]: 40.9%
- viability, T/C [29]: 13.3%

Compound: Cn1ncnc1[C@H]1c2n[nH]c(=O)c3cc(F)cc(c23)N[C@@H]1c1ccc(F)cc1 + C=CC(=O)N1CCN(c2nc(=O)n(-c3c(C)ccnc3C(C)C)c3nc(-c4c(O)cccc4F)c(F)cc23)C(C)C1
- IC50 (second compound 0.1 µM): > 100 nM
- IC50 (second compound 0.316 µM): > 100 nM
- IC50 (second compound 1 µM): > 100 nM
- IC50 (second compound 3.16 µM): > 100 nM
- IC50 (second compound 10 µM): > 100 nM
- viability, T/C [30]: 104%
- viability, T/C [31]: 106%
- viability, T/C [32]: 89.6%
- viability, T/C [33]: 96.3%
- viability, T/C [1]: 87.2%
- viability, T/C [2]: 79.3%
- viability, T/C [34]: 109%
- viability, T/C [35]: 108%
- viability, T/C [36]: 103%
- viability, T/C [37]: 80.6%
- viability, T/C [7]: 82.6%
- viability, T/C [8]: 86.3%
- viability, T/C [38]: 103%
- viability, T/C [39]: 107%
- viability, T/C [40]: 96.6%
- viability, T/C [41]: 85.9%
- viability, T/C [13]: 83.3%
- viability, T/C [14]: 68.2%
- viability, T/C [42]: 95.5%
- viability, T/C [43]: 89.8%
- viability, T/C [44]: 97.7%
- viability, T/C [45]: 75.2%
- viability, T/C [19]: 66.4%
- viability, T/C [20]: 61.9%
- viability, T/C [46]: 63.9%
- viability, T/C [47]: 67.8%
- viability, T/C [48]: 60.9%
- viability, T/C [49]: 59.6%
- viability, T/C [24]: 59.8%
- viability, T/C [25]: 57.7%
